Details in all cases: SD
One assay has as its target nSH3 domain of Grb2 (Homo sapiens, UniProt P62993). Briefly: ITC binding of Sos1 peptides to wildtype nSH3 domain of Grb2.
A further assay concerns the target cSH3 domain of Grb2 (Homo sapiens, UniProt P62993). Briefly: ITC binding of Sos1 peptides to wildtype cSH3 domain of Grb2.
Assay [1] addresses nSH3_D33A mutant domain of Grb2 (Homo sapiens, UniProt P62993, D33A). The assay is described as follows: ITC binding of Sos1 peptides to nSH3_D33A mutant domain.
Assay [2] addresses nSH3_E31A mutant domain of Grb2 (Homo sapiens, UniProt P62993, E31A). The assay is described as follows: ITC binding of Sos1 peptides to nSH3_E31A mutant domain.
In assay [3] the target is cSH3_D187A mutant domain of Grb2 (Homo sapiens, UniProt P62993, D187A). The assay is described as follows: ITC binding of Sos1 peptides to cSH3_D187A mutant domain.
Sequence of cSH3_D187A mutant domain of Grb2 (P62993 156-215 D187A limits assumed): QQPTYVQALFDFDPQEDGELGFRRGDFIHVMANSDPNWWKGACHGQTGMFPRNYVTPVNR
Assay [4] has as its target cSH3_D190A mutant domain of Grb2 (Homo sapiens, UniProt P62993, D190A). The assay is described as follows: ITC binding of Sos1 peptides to cSH3_D190A mutant domain.

Ends that are not written are not given here.

Sequence of cSH3 domain of Grb2 (P62993 156-215 limits assumed): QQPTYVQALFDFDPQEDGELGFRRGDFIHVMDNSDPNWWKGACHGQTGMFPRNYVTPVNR
Sequence of nSH3 domain of Grb2 (P62993 1-58 limits assumed): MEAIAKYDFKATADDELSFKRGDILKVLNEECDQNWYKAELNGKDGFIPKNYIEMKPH
Sequence of cSH3_D190A mutant domain of Grb2 (P62993 156-215 D190A limits assumed): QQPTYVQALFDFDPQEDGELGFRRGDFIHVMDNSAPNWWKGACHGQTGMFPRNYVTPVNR
Sequence of nSH3_E31A mutant domain of Grb2 (P62993 1-58 E31A limits assumed): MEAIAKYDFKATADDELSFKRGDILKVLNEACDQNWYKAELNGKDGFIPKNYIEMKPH
Sequence of nSH3_D33A mutant domain of Grb2 (P62993 1-58 D33A limits assumed): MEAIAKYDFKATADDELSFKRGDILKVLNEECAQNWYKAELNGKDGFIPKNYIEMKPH

The Kd is the equilibrium constant for the complex coming apart. Higher therefore signals weaker binding. For PVPPPVPPARRP [S1_R+5A], the dissociation constant (Kd) at nSH3 domain of Grb2 came out at 490 ± 20 µM; at cSH3 domain of Grb2, 962 ± 26 µM.
Take PVPPPVPPRARP [S1_R+6A]: the Kd in assay [1] is 137 ± 7.6 µM; at nSH3 domain of Grb2 it was 53 ± 1 µM; in assay [2], 67 ± 0.3 µM; in assay [3] it was 544 ± 102 µM; in assay [4], 910 ± 57 µM; on cSH3 domain of Grb2, 331 ± 2 µM.
In the case of IAGPPVPPRQST [Peptide S4], the values for the Kd on nSH3 domain of Grb2 and on cSH3 domain of Grb2 were 82 ± 1 µM and 1320 ± 44 µM, respectively.
The corresponding values for DSPPAIPPRQPT [Peptide S2] are 56 ± 5 µM and 1400 ± 87 µM.
In the same order, the values of PVPPPVPPAAAP [Peptide S1_AAA] are 2560 ± 335 µM and 3090 ± 121 µM.
With PVPPPVPPRRAP [S1_R+7A], the Kd amounted to 169 ± 4.5 µM in assay [1]; 72 ± 1 µM at nSH3 domain of Grb2; 91 ± 1.2 µM in assay [2]; 2390 ± 73 µM in assay [3]; 482 ± 47 µM in assay [4]; 318 ± 23 µM at cSH3 domain of Grb2.
Consider PVPPPVPPRAAP [Peptide S1_AA], for which the Kd at nSH3 domain of Grb2 came to 84 ± 1 µM; at cSH3 domain of Grb2, 1570 ± 27 µM.
As for ESPPLLPPREPV [Peptide S3], the Kd on nSH3 domain of Grb2 turned out to be 117 ± 2 µM; on cSH3 domain of Grb2 it was 1720 ± 33 µM.

For the origin of these results see paper PMC2710136 (Biochemistry, 2009).
